Each block holds one compound with its values, some of them ahead of it. Activity calls are given as the source filed them. No cut-off for these calls is given here.
Legend:
[1] = molecular target: Serine protease 1 (Homo sapiens) (UniProt P07477); assay: The inhibitor specificity constant ki/Ki was evaluated for the compound against trypsin
Prothrombin = Prothrombin (Homo sapiens, UniProt P00734); assay: Evaluated for inhibition against thrombin
Tryptase (Homo sapiens) = Tryptase (Homo sapiens) (UniProt Q9BZJ3+Q15661+Q9NRR2); assay: Inhibitor specificity constant ki/Ki was evaluated for the compound against tryptase; NI means No inhibition; format: protein assay
[2] = molecular target: Coagulation factor X (Homo sapiens) (UniProt P00742); assay: Inhibitor specificity constant ki/Ki was evaluated for the compound against Factor Xa
Sequence of Coagulation factor X (Homo sapiens) (P00742 41-179 limits assumed): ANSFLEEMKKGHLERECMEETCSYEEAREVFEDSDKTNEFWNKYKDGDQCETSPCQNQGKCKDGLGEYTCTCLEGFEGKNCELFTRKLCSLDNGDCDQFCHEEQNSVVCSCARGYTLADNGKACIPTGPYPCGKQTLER
Sequence of Coagulation factor X (Homo sapiens) (P00742 235-488 limits assumed): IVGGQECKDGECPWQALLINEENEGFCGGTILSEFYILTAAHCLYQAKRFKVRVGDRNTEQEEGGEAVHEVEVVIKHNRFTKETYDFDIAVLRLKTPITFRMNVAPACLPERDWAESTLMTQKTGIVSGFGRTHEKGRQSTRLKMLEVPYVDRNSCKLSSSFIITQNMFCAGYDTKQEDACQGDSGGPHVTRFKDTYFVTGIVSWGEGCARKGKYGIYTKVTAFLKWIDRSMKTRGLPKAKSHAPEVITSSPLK

Sequence of Serine protease 1 (Homo sapiens) (P07477 whole entry): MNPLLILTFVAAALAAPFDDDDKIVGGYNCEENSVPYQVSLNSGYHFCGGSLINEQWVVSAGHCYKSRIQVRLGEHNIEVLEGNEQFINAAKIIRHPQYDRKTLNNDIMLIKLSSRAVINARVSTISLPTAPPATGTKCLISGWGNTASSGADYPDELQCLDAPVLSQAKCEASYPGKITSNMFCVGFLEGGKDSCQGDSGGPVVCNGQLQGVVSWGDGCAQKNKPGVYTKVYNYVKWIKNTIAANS

ki/Ki [1]: 0.0417 M⁻¹ s⁻¹
Ki (Prothrombin): 14 µM
Structure (SMILES): COc1ccc(C(=O)OC[C@H](CCCN=C(N)N)NC(=O)[C@@H]2CCCN2C(=O)[C@@H](Cc2ccccc2)NC(=O)OC(C)(C)C)cc1

ki/Ki (Tryptase (Homo sapiens)): inactive
Structure (SMILES): COc1ccc(C(=O)OC[C@H](CCCN=C(N)N)NC(=O)[C@H](CCC(N)=O)NC(=O)[C@H](CCCN=C(N)N)NC(C)=O)cc1

ki/Ki [2]: 0.075 M⁻¹ s⁻¹
Structure (SMILES): CC[C@H](C)[C@H](NC(=O)OC(C)(C)C)C(=O)N[C@@H](CCC(=O)O)C(=O)NCC(=O)N[C@@H](CCCN=C(N)N)COC(=O)c1ccc(OC)cc1
